As a reminder, the Ki is a measure of affinity in units of concentration, obtained from inhibition or displacement.

This is an account of results in patent US11612606B2, “8-aminoisoquinoline compounds and uses thereof” (priority 2018, dated 2023).

Where a name gives a salt, the structure may show the parent alone.

Sequence of HPK full length, T165E S171E (Q92918 whole entry T165E/S171E, looked up): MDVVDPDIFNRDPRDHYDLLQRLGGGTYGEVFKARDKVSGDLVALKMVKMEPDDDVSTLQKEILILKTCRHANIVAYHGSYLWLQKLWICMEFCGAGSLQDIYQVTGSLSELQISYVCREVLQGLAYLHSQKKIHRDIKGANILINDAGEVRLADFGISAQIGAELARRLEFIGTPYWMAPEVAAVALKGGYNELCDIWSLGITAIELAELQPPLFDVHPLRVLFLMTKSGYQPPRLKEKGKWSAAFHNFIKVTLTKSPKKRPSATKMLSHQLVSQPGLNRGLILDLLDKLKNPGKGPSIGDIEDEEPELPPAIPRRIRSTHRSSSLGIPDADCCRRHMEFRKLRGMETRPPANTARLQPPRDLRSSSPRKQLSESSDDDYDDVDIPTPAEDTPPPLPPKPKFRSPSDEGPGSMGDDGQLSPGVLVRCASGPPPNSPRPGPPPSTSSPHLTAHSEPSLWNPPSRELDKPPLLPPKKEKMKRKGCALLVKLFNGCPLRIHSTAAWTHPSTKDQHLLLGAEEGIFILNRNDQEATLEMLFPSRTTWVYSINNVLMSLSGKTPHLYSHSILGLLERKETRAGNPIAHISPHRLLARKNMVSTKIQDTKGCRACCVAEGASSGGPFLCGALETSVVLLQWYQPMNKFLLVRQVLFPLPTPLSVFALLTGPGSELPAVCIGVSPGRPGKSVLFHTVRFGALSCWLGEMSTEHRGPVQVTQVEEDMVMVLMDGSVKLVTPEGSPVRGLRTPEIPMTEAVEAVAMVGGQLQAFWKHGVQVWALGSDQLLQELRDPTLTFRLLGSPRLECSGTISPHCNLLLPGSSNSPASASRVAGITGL

This assay concerns the target HPK full length, T165E S171E (Homo sapiens (Human), UniProt Q92918, S171E/T165E). As to the kind of experiment: HPK1-FL HTRF enzymatic assay ("HTRF"). Format: biochemical. Particulars: ATP 1 mM, read-out: HPK1 Ki. The essentials:
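Full-length HPK1 (T165E/S171E) was preincubated 30 min with compound, then reacted 60 min with biotin-SLP-76 and 1 mM ATP. Phospho-SLP-76 was detected by HTRF (Eu-anti-pSLP76 antibody, SA-XL665) after a further 60 min.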
For orientation: In TR-FRET formats the signal depends on donor and acceptor labels being close together.
Regarding `Cc1c(-c2cc3cc(NC(=O)N[C@H]4CC[C@@H](C#N)C4)ncc3c(N)c2F)cnc2c1NCCO2` (single isomer, unassigned) [Compound 726b], the Ki came out at 0.016 nM. The value for `Cc1c(-c2cc3cc(NC(=O)OC4CCN(C)CC4F)ncc3c(N)c2F)cnc2c1NCCO2` (single isomer, unassigned) [Compound 433] was below 0.013 nM; that for `Cc1c(-c2cc3cc(NC(=O)OC4CCOCC4)ncc3c(N)c2F)cnc2c1NCC[C@@H]2C` (single isomer, unassigned) [Compound 461b] was 1.01 nM.

For the compound `Cc1c(-c2cc3cc(NC(=O)N[C@@H]4CCCOC4)ncc3c(N)c2F)cnc2c1NCCO2` (single isomer, unassigned) [Compound 711b], the Ki was below 0.013 nM.

Take `Cc1c(-c2cc3cc(NC(=O)O[C@H]4C[C@H](n5ccnc5)C4)ncc3c(N)c2F)cnc2c1NCCO2` [Compound 514a, (1r,3r)-3-(1H-Imidazol-1-yl)cyclobutyl (8-amino-7-fluoro-6-(8-methyl-2,3-dihydro-1H-pyrido[2,3-b][1,4]oxazin-7-yl)isoquinolin-3-yl)carbamate hydrochloride]: the Ki was below 0.013 nM. The value for `Cc1c(-c2cc3cc(NC(=O)OC4C5CC4CN(C)C5)ncc3c(N)c2F)cnc2c1NCCO2` (stereo not drawn) [Compound 431, 3-Methyl-3-azabicyclo[3.1.1]heptan-6-yl (8-amino-7-fluoro-6-(8-methyl-2,3-dihydro-1H-pyrido[2,3-b][1,4]oxazin-7-yl)isoquinolin-3-yl)carbamate] was 2.3 nM; that for `Cc1c(-c2cc3cc(NC(=O)O[C@H]4C[C@H](O)C4)ncc3c(N)c2F)cnc2c1NCCO2` [Compound 485b, (1r,3r)-3-Hydroxycyclobutyl (8-amino-7-fluoro-6-(8-methyl-2,3-dihydro-1H-pyrido[2,3-b][1,4]oxazin-7-yl)isoquinolin-3-yl)carbamate] was below 0.013 nM; that for `CNC(=O)Nc1cc2cc(-c3cnc4c(c3C)NCCC4)c(F)c(N)c2cn1` [Compound 705, 1-[8-Amino-7-fluoro-6-(4-methyl-5,6,7,8-tetrahydro-1,5-naphthyridin-3-yl)-3-isoquinolyl]-3-methyl-urea] was 0.15 nM. The value for `Cc1c(-c2cc3cc(NC(=O)N4CCC4)ncc3c(N)c2F)cnc2c1NCCO2` [Compound 756, N-(8-Amino-7-fluoro-6-(8-methyl-2,3-dihydro-1H-pyrido[2,3-b][1,4]oxazin-7-yl)isoquinolin-3-yl)azetidine-1-carboxamide] was 0.02 nM; that for `Cc1c(-c2cc3cc(NC(=O)O[C@H]4CCCNC4)ncc3c(N)c2F)cnc2c1NCCO2` (single isomer, unassigned) [Compound 408a] was 0.089 nM. To `Cc1c(-c2cc3cc(NC(=O)O[C@H]4C[C@@H](CO)C4)ncc3c(N)c2F)cnc2c1NCCO2` [Compound 571b, (1s,3s)-3-(Hydroxymethyl)cyclobutyl (8-amino-7-fluoro-6-(8-methyl-2,3-dihydro-1H-pyrido[2,3-b][1,4]oxazin-7-yl)isoquinolin-3-yl)carbamate] belongs below 0.013 nM; to `Cc1c(-c2cc3cc(NC(=O)O[C@@H]4CN(C)C[C@@H]4F)ncc3c(N)c2F)cnc2c1NCCO2` (single isomer, unassigned) [Compound 452d], below 0.013 nM. As for `Cc1c(-c2cc3cc(NC(=O)O[C@@H]4COC[C@H]4F)ncc3c(N)c2F)cnc2c1NCCO2` [Compound 477a, (3R,4R)-4-Fluorotetrahydrofuran-3-yl (8-amino-7-fluoro-6-(8-methyl-2,3-dihydro-1H-pyrido[2,3-b][1,4]oxazin-7-yl)isoquinolin-3-yl)carbamate], the Ki came out at 0.034 nM. To `Cc1c(-c2cc3cc(NC(=O)OC4CN(CC(F)F)C4)ncc3c(N)c2F)cnc2c1NCCO2` [Compound 434, 1-(2,2-Difluoroethyl)azetidin-3-yl (8-amino-7-fluoro-6-(8-methyl-2,3-dihydro-1H-pyrido[2,3-b][1,4]oxazin-7-yl)isoquinolin-3-yl)carbamate] belongs below 0.013 nM; to `CO[C@H]1C[C@H](OC(=O)Nc2cc3cc(-c4cnc5c(c4C)NCCO5)c(F)c(N)c3cn2)C1` [Compound 576a, (1r, 3r)-3-Methoxycyclobutyl (8-amino-7-fluoro-6-(8-methyl-2,3-dihydro-1H-pyrido[2,3-b][1,4]oxazin-7-yl)isoquinolin-3-yl)carbamate], below 0.013 nM; to `Cc1c(-c2cc3cc(NC(=O)OC4CN(CC(F)(F)F)C4)ncc3c(N)c2F)cnc2c1NCCO2` [Compound 420, 1-(2,2,2-Trifluoroethyl)azetidin-3-yl (8-amino-7-fluoro-6-(8-methyl-2,3-dihydro-1H-pyrido[2,3-b][1,4]oxazin-7-yl)isoquinolin-3-yl)carbamate], below 0.013 nM. In the case of `Cc1c(-c2cc3cc(NC(=O)O[C@H]4CC(=O)N(C)C4)ncc3c(N)c2F)cnc2c1NCCC2` (single isomer, unassigned) [Compound 481a], the Ki came to 0.184 nM. The value for `Cc1c(-c2cc3cc(NC(=O)OC4C5COCC4CN(C)C5)ncc3c(N)c2F)cnc2c1NCCO2` (single isomer, unassigned) [Compound 439b] was 0.48 nM.

As for `Cc1c(-c2cc3cc(NC(=O)O[C@H]4COC[C@H]4F)ncc3c(N)c2F)cnc2c1NCCO2` [Compound 477c, (3S,4R)-4-Fluorotetrahydrofuran-3-yl (8-amino-7-fluoro-6-(8-methyl-2,3-dihydro-1H-pyrido[2,3-b][1,4]oxazin-7-yl)isoquinolin-3-yl)carbamate], the Ki is 0.15 nM. For the compound `Cc1c(-c2cc3cc(NC(=O)OC[C@@]4(F)CCN(C)C4)ncc3c(N)c2F)cnc2c1NCCO2` (single isomer, unassigned) [Compound 451a], the Ki was 0.14 nM. `Cc1c(-c2cc3cc(NC(=O)OC4CCOCC4)ncc3c(N)c2F)cnc2c1NCC[C@H]2C` (single isomer, unassigned) [Compound 461a]: the Ki was found to be 0.891 nM. The value for `Cc1c(-c2cc3cc(NC(=O)O[C@H]4CN(C)C[C@H]4C)ncc3c(N)c2F)cnc2c1NCCO2` (single isomer, unassigned) [Compound 442b] was 0.201 nM; that for `Cc1c(-c2cc3cc(NC(=O)O[C@@H]4COC[C@H]4C#N)ncc3c(N)c2F)cnc2c1NCCO2` (single isomer, unassigned) [Compound 538a] was 0.058 nM; that for `Cc1c(-c2cc3cc(NC(=O)O[C@]4(C)C[C@H](O)C4)ncc3c(N)c2F)cnc2c1NCCO2` [Compound 554a, (1s,3s)-3-Hydroxy-1-methylcyclobutyl (8-amino-7-fluoro-6-(8-methyl-2,3-dihydro-1H-pyrido[2,3-b][1,4]oxazin-7-yl)isoquinolin-3-yl)carbamate] was 0.253 nM. The value for `Cc1c(-c2cc3cc(NC(=O)OC4CN(C(=O)[C@H]5C[C@@H]5F)C4)ncc3c(N)c2F)cnc2c1NCCO2` (single isomer, unassigned) [Compound 545a] was 0.021 nM. The value for `Cc1c(-c2cc3cc(NC(=O)O[C@@H]4CCO[C@@H]4C)ncc3c(N)c2F)cnc2c1NCCO2` (single isomer, unassigned) [Compound 510d] was 0.016 nM; that for `Cc1c(-c2cc3cc(NC(=O)O[C@H]4COC[C@H]4C)ncc3c(N)c2F)cnc2c1NCCO2` (single isomer, unassigned) [Compound 441c] was 0.16 nM.
